From the OligoGym collection
Several values for one entry are separate records, joined by “and”; a condition that tells them apart may be missing. Identical values can stand only once. After the bases stand the sugars from the 5' end (letter, count) and the backbone: PS all phosphorothioate, else s phosphorothioate and o phosphodiester by linkage. Methylation of C is not given here. e = 2'-O-(2-methoxyethyl) (MOE); k = constrained ethyl (cEt); d = 2'-deoxy (DNA)

Target: IRF4
Details: ASO

Sequence | target mRNA inhibition (MM.1R, 1 µM) | target mRNA inhibition (SK-MEL-28, 4 µM) | other results
ATTTAAGTCATGTGTC (sugars k3 d10 k3, PS) | 17% | – | –
TTGCAAGAGAACAGCC (sugars k3 d10 k3, PS) | – | 39% | –
TTACATCCTAGAACAC (sugars k3 d10 k3, PS) | – | 3% | –
GGCACATCAATGTTTT (sugars kkdddddddddekeke, PS) | 22% and 26% | – | –
CTAAGGAGACAGTAAC (sugars k3 d10 k3, PS) | – | 29% | –
GACTAACTCTCCTGTT (sugars k3 d10 k3, PS) | – | 17% | –
ACTTAGACATTACTAG (sugars k3 d10 k3, PS) | – | 20% | –
GCTAAACCTGGCACCA (sugars k3 d10 k3, PS) | 7% | – | –
CTGGAGGTCGAACCTC (sugars k3 d10 k3, PS) | – | 2% | –
TGTAAGGGCTGCTCAT (sugars k3 d10 k3, PS) | – | 49% | –
CGCTCAGGACTCAGGG (sugars k3 d10 k3, PS) | – | 55% | –
GTAGAGTGAGATGCGG (sugars k3 d10 k3, PS) | 51% and 40% | – | target mRNA inhibition (MM.1R, 0.0625 µM): -4%; target mRNA inhibition (MM.1R, 0.25 µM): 16%; target mRNA inhibition (MM.1R, 4 µM): 70%
AGTAAGAGGGCAGTCA (sugars k3 d10 k3, PS) | – | 50% | –
AGGGAGACAGCTCTAG (sugars k3 d10 k3, PS) | – | 25% | –
AAAGAGTGGTACACCT (sugars k3 d10 k3, PS) | 10% | – | –
GACTTAATTCTGGGTT (sugars k3 d10 k3, PS) | – | 35% | –
AGAAACAGAGACGCGG (sugars k3 d10 k3, PS) | 11% | – | –
GTAGTATGAGAAACGG (sugars kkddddddddddkeke, PS) | 28% | – | –

Sequence | target mRNA inhibition (MM.1R, 1 µM) | target mRNA inhibition (SK-MEL-28, 4 µM) | other results
ACGGAAGTTTACACTG (sugars kkddddddddddkeke, PS) | 13% | – | –
CTTCACTACCTGCAGC (sugars k3 d10 k3, PS) | – | 22% | –
GAAATGTCAAACCCTA (sugars k3 d10 k3, PS) | – | 71% | –
TAGATAACATGAGAGT (sugars k3 d10 k3, PS) | – | 50% | –
ACACACAAGTGGCCTT (sugars k3 d10 k3, PS) | – | 44% | –
GATATAAATAGCTGTT (sugars k4 d8 k4, PS) | – | 61% | target mRNA inhibition (MM.1R, 0.074 µM): 5% and 3%; target mRNA inhibition (MM.1R, 0.222 µM): 6% and 15%; target mRNA inhibition (MM.1R, 0.666 µM): 12%; target mRNA inhibition (MM.1R, 2 µM): 24% and 19%; target mRNA inhibition (SK-MEL-28, 0.185 µM): 2% and 6% and 10%; target mRNA inhibition (SK-MEL-28, 5 µM): 57% and 76%
ACTGCTTGAGGTTTTC (sugars k3 d9 k3 e1, PS) | 52% | – | –
TTGAGGTTTTCCTAAA (sugars k3 d10 k3, PS) | – | 29% | –
TCTGGATTGCTGATGT (sugars k3 d10 k3, PS) | 36% | – | –
CTTAGAATGAGAGGTG (sugars k3 d10 k3, PS) | 1% | – | –
GTGATGTCAGGTTTTC (sugars kkkdddddddddkeke, PS) | 34% | – | –
TGAATAGAGGAATGGC (sugars k3 d10 k3, PS) | – | 21% | –
ACTAAGGACAGCTGTG (sugars k3 d10 k3, PS) | – | 15% | –
CCTTAACCAATCCCAA (sugars k3 d10 k3, PS) | – | 43% | –
TAGTTGTCTGGCTAGC (sugars k3 d10 k3, PS) | 32% and 33% | – | target mRNA inhibition (MM.1R, 0.0625 µM): 4% and 7%; target mRNA inhibition (MM.1R, 0.25 µM): 16% and 24%; target mRNA inhibition (MM.1R, 4 µM): 68%
GTCTGAGATGTCCAGC (sugars k3 d10 k3, PS) | 7% | – | –
GAGATAAGAAGCACTG (sugars k3 d10 k3, PS) | – | 44% | –
